Patent publication US8557800B2, “Sphingosine kinase inhibitors” (Apogee Biotechnology Corporation, priority 2005, dated 2013)
Where two headings read alike, the source gives them in different places.

Key:
Aurora-A = Aurora-A (Homo sapiens, UniProt O14965); assay: Kinase selectivity panel; type: biochemical; details: read-out: percent of control activity, Aurora-A
Procedure: (§1) A common problem with attempts to develop protein kinase inhibitors is the lack of selectivity toward the target kinase since the majority of these compounds interact with nucleotide-binding domains that are highly conserved among kinases. […] The compound was tested at a single concentration of 50 μM.

PKA = PKA (Homo sapiens, UniProt P17612); assay: Kinase selectivity panel; type: biochemical; details: read-out: percent of control activity, PKA
Procedure: as §1

Protein kinase C α = Protein kinase C α (Homo sapiens, UniProt P17252); assay: Kinase selectivity panel; type: biochemical; details: read-out: percent of control activity, Protein kinase C α
Procedure: as §1

EFGR = EFGR (Homo sapiens, UniProt P00533); assay: Kinase selectivity panel; type: biochemical; details: read-out: percent of control activity, EFGR
Procedure: as §1

P38 MAP kinase 2 = P38 MAP kinase 2 (Homo sapiens, UniProt Q15759); assay: Kinase selectivity panel; type: biochemical; details: read-out: percent of control activity, P38 MAP kinase 2
Procedure: as §1

PKBα = PKBα (Homo sapiens, UniProt P31749); assay: Kinase selectivity panel; type: biochemical; details: read-out: percent of control activity, PKBα
Procedure: as §1

cRaf = cRaf (Homo sapiens, UniProt P04049); assay: Kinase selectivity panel; type: biochemical; details: read-out: percent of control activity, cRaf
Procedure: as §1

Protein kinase C ε = Protein kinase C ε (Homo sapiens, UniProt Q02156); assay: Kinase selectivity panel; type: biochemical; details: read-out: percent of control activity, Protein kinase C ε
Procedure: as §1

PDK1 = PDK1 (Homo sapiens, UniProt O15530); assay: Kinase selectivity panel; type: biochemical; details: read-out: percent of control activity, PDK1
Procedure: as §1

CHK1 = CHK1 (Homo sapiens, UniProt O14757); assay: Kinase selectivity panel; type: biochemical; details: read-out: percent of control activity, CHK1
Procedure: as §1

Ca^2+/calmodulin PK IV = Ca^2+/calmodulin PK IV (Homo sapiens, UniProt Q16566); assay: Kinase selectivity panel; type: biochemical; details: read-out: percent of control activity, Ca^2+/calmodulin PK IV
Procedure: as §1

Fyn = Fyn (Homo sapiens, UniProt P06241); assay: Kinase selectivity panel; type: biochemical; details: read-out: percent of control activity, Fyn
Procedure: as §1

CDK1/cyclinB = CDK1/cyclinB (Homo sapiens, UniProt P06493); assay: Kinase selectivity panel; type: biochemical; details: read-out: percent of control activity, CDK1/cyclinB
Procedure: as §1

[1] = Oral pharmacokinetics in mice (PEG400); type: in vivo; details: mouse, blood, 100 mg/kg oral gavage in PEG400, female Swiss-Webster mice
Procedure: Oral pharmacokinetic studies were performed on Compounds 62 and 57. Each compound was dissolved in PEG400 and administered to female Swiss-Webster mice at a dose of 100 mg/kg by oral gavage. Mice were anesthetized and blood was removed via cardiac puncture at 5 minutes, 30 minutes, 1, 2, and 8 hours. Concentrations of the test compounds were determined using liquid-liquid extraction, appropriate internal standards and reverse phase HPLC with UV detection. Control blood samples were run to identify compound-specific peaks. Pharmacokinetic parameters were calculated using the WINNONLIN analysis software package (Pharsight). Non-compartmental and compartmental models were tested, with the results shown in Table 7 derived from the best fit equations.

recombinant human SK = assay: Inhibition of recombinant human SK, LC/MS/MS assay; type: biochemical; details: 6 μg/ml compound
Outline: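 Enzyme incubated with unlabeled sphingosine and ATP (1 mM, as in the radiometric format) for 30 min, then stopped and extracted with acetonitrile. S1P quantified by C8 reverse-phase HPLC–MS/MS against C17 sphingosine and C17 S1P internal standards using calibration curves.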

Sequence of cRaf (P04049 whole entry, species assumed): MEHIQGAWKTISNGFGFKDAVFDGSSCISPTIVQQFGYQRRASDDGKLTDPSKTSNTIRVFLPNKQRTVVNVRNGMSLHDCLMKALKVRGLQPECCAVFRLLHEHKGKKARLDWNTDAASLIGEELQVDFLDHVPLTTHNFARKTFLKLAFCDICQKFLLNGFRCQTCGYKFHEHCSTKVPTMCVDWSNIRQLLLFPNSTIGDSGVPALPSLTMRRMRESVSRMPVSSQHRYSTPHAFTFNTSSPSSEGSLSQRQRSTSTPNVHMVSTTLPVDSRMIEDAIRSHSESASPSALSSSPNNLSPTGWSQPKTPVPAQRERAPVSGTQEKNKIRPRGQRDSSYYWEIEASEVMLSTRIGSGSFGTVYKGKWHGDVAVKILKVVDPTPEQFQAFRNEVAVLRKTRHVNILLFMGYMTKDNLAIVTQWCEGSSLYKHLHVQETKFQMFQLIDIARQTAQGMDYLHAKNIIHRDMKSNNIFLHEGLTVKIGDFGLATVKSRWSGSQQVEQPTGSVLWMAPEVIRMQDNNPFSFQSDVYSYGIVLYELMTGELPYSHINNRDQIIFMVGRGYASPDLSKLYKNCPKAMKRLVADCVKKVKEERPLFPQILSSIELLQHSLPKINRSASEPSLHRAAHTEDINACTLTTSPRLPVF
Sequence of P38 MAP kinase 2 (Q15759 whole entry): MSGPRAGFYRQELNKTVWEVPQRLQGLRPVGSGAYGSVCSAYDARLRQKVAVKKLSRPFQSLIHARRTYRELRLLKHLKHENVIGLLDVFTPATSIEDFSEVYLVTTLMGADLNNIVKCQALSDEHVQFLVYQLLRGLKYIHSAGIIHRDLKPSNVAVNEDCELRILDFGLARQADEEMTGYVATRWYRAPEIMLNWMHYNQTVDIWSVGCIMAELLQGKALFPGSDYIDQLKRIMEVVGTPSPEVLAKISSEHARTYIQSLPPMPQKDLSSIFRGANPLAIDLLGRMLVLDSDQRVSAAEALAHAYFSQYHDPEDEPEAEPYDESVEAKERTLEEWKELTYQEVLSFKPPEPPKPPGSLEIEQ
Sequence of PKBα (P31749 whole entry, species assumed): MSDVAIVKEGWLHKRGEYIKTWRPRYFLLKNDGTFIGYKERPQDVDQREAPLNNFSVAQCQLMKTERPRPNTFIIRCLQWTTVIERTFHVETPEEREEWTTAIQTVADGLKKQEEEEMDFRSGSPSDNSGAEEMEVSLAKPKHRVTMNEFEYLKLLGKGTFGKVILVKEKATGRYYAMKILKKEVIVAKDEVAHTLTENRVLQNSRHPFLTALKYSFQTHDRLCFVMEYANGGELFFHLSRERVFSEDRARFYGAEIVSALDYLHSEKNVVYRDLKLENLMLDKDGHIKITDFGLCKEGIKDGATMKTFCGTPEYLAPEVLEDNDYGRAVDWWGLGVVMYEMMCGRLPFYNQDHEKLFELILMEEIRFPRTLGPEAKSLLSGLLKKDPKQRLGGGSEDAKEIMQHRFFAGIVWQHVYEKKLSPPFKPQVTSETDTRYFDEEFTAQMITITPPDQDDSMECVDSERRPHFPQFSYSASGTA
Sequence of Aurora-A (O14965 whole entry, the tested form may be a part): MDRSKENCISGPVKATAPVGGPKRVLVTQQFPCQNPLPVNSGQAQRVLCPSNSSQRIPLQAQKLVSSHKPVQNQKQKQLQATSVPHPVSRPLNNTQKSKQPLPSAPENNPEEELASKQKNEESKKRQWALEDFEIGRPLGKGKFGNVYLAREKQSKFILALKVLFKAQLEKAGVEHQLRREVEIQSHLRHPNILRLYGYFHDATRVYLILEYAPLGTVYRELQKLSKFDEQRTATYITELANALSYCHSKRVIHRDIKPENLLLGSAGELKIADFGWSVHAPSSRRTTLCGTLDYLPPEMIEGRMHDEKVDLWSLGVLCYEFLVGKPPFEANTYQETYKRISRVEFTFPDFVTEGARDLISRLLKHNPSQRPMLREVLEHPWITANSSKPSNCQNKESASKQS
Sequence of Fyn (P06241 whole entry, species assumed): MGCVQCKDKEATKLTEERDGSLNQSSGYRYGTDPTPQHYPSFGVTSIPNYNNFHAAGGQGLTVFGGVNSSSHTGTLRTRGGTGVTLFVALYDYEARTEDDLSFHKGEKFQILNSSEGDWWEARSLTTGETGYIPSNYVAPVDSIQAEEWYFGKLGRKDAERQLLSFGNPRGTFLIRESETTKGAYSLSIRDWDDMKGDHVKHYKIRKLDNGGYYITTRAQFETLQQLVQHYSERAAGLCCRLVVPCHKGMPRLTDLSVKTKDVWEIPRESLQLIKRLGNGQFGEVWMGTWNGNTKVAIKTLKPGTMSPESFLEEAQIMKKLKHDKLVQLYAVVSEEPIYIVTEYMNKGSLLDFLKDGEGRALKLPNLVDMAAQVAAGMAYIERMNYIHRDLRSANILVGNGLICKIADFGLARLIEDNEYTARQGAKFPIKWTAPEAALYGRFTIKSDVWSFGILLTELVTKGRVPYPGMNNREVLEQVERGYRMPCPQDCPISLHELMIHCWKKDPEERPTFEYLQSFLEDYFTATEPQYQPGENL
Sequence of EFGR (P00533 25-1210): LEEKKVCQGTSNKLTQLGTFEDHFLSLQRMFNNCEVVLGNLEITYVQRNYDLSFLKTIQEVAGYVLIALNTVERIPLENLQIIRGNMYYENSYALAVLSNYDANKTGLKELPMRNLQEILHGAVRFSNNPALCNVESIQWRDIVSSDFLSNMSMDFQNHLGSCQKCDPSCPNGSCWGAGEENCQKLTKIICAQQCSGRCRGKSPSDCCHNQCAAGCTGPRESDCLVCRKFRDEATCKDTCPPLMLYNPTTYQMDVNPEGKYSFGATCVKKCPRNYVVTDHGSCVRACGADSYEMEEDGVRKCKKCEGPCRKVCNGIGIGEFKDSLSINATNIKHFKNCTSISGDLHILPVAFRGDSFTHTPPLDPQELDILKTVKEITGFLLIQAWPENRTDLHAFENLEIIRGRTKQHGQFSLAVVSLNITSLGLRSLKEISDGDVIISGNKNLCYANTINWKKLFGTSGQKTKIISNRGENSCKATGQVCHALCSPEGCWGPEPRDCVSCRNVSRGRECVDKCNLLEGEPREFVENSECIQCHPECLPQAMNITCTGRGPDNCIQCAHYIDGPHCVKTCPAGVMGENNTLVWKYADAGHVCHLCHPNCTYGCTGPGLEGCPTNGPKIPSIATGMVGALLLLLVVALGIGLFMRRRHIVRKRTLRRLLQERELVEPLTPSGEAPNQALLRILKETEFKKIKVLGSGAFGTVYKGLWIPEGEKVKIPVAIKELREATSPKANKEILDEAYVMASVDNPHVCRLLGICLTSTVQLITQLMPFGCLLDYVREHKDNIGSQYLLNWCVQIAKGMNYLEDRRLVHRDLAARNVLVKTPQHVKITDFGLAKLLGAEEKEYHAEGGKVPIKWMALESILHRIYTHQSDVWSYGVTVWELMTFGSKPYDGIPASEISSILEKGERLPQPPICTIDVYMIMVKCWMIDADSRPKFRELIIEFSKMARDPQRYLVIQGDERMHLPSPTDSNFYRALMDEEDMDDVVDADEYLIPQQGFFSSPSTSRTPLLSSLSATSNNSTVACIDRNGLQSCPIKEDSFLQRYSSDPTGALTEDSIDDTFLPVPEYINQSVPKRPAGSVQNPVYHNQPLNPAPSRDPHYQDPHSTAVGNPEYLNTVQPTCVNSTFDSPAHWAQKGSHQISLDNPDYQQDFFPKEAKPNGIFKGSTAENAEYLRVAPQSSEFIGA
Sequence of CDK1/cyclinB (P06493 whole entry, species assumed): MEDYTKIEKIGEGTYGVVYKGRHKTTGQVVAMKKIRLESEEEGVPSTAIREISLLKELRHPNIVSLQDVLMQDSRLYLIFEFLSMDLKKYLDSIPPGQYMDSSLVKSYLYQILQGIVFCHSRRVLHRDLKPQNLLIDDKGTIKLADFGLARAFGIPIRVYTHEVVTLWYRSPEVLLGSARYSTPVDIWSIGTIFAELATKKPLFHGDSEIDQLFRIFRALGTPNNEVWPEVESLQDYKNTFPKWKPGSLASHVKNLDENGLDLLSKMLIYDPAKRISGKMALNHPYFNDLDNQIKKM
Sequence of CDK1/cyclinB (P14635 whole entry partner, species assumed): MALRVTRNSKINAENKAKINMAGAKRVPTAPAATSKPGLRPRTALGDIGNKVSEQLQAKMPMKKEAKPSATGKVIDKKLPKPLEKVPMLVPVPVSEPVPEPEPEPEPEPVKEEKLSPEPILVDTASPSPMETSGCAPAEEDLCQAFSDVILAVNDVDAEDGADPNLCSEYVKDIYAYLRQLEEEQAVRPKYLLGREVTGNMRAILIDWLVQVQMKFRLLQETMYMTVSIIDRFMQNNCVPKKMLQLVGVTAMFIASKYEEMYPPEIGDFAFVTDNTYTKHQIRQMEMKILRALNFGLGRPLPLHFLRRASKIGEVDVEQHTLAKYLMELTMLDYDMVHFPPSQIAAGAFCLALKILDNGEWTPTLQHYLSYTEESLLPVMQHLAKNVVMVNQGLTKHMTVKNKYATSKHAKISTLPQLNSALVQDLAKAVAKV
Sequence of CHK1 (O14757 whole entry, species assumed): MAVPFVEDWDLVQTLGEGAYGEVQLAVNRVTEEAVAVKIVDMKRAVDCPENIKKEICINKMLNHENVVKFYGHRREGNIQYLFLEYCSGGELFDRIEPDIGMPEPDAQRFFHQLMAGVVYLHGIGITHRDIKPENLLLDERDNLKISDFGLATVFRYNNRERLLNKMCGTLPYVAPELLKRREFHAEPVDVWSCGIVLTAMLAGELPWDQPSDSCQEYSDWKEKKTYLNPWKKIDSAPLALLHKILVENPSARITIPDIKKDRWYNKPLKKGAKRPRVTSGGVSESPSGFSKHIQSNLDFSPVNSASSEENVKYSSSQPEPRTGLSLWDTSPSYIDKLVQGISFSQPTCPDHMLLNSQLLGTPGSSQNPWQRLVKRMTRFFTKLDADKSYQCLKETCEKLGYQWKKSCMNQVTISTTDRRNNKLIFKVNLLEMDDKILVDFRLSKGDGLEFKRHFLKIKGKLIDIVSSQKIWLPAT

O=C(NCc1ccncc1)C12CC3CC(C1)CC(c1ccc(Cl)cc1)(C3)C2 [Compound 62, 3-(4-Chloro-phenyl)-adamantane-1-carboxylic acid (pyridin-4-ylmethyl)-amide]
remaining activity at 50 µM (Aurora-A): 103 ± 1% | remaining activity at 50 µM (PKA): 104 ± 5% | remaining activity at 50 µM (Protein kinase C α): 86 ± 5% | remaining activity at 50 µM (EFGR): 101 ± 3% | remaining activity at 50 µM (P38 MAP kinase 2): 109 ± 5% | remaining activity at 50 µM (PKBα): 95 ± 2% | remaining activity at 50 µM (cRaf): 96 ± 5% | remaining activity at 50 µM (Protein kinase C ε): 101 ± 1% | remaining activity at 50 µM (PDK1): 116 ± 3% | remaining activity at 50 µM (CHK1): 142 ± 13% | remaining activity at 50 µM (Ca^2+/calmodulin PK IV): 81 ± 3% | remaining activity at 50 µM (Fyn): 84 ± 5% | remaining activity at 50 µM (CDK1/cyclinB): 105 ± 1% | Cmax [1]: 55.8 µM | Tmax [1]: 30 min | half-life [1]: 438 min | AUC(0-inf) ([1]; read-out: AUC0→∞ (μM * h)): 452 µM·h | AUC(0-inf) ([1]; read-out: AUC0→∞ (μg * h/mL)): 172 µg·h/mL | Recombinant SK (% inhibition) (recombinant human SK): 13%
